Data taken from ChEMBL document CHEMBL5034018, “LXR-Mediated Regulation of Marine-Derived Piericidins Aggravates High-Cholesterol Diet-Induced Cholesterol Metabolism Disorder in Mice” (J Med Chem, 2021).
Active and inactive are the calls of the source. The calls are words filed in the database; no cut-off is given here.

Columns and labels:
[1] = Induction of LDLR mRNA level in human HepG2 cells assessed as fold increase in LDLR expression at 1 uM by RT-qPCR analysis; format: functional
Mus musculus [2] = assay: Induction of HCD-induced cholestasis in C57BL/6 mouse assessed as fold increase in liver total cholesterol level at 0.8 mg/kg, ip; format: organism-based; settings: in vivo
HepG2 [3] = assay: Induction of mitochondrial membrane potential loss in human HepG2 cells assessed as intact mitochondrial membrane potential at 5 uM after 48 hrs by TMRM dye based flow cytometric analysis (reference value: 74.2%); format: cell-based; settings: hepg2, 48 h
HepG2 [4] = assay: Cytotoxicity against human HepG2 cells assessed as reduction in cell viability at < 10 uM incubated for 48 hrs by MTT assay; format: cell-based; settings: hepg2, 48 h
[5] = Effect on bile acid homeostasis in HCD-fed C57BL/6 mouse assessed as inhibition of Cyp8b1 mRNA expression by RT-qPCR analysis; format: functional; design: scale not given: the % may be the effect or the level left
HepG2 [6] = assay: Induction of apoptosis in human HepG2 cells assessed as change in caspase 3 protein expression at 1 to 5 uM after 48 hrs; format: functional, cell-based; settings: dose 1-5 µM
Mus musculus [7] = assay: Induction of HCD-induced cholestasis in C57BL/6 mouse assessed as fold increase in plasma LDL-cholesterol level at 0.8 mg/kg, ip; format: functional
[8] = Induction of LDLR mRNA level in human HepG2 cells assessed as fold increase in LDLR expression at 5 uM by RT-qPCR analysis; format: functional
[9] = Down regulation of FXR mRNA level in human HepG2 cells at 1 uM by RT-qPCR analysis; format: functional
[10] = Effect on bile acid homeostasis in HCD-fed C57BL/6 mouse assessed as reduction in Ntcp-mRNA expression by RT-qPCR analysis; format: functional; design: scale not given: the % may be the effect or the level left
Mus musculus [11] = species: Mus musculus; assay: Effect on bile acid homeostasis in Chow diet-fed C57BL/6 mouse assessed as change in Car protein expression; format: functional
Mus musculus [12] = species: Mus musculus; assay: Effect on bile acid homeostasis in HCD-fed C57BL/6 mouse assessed as change in Ugt1a1 mRNA expression by RT-qPCR analysis; format: functional
[13] = Hepatotoxicity in renal carcinoma xenografted C57BL/6 mouse assessed as white discoloration of liver at 0.8 mg/kg, ip; format: toxicity, organism-based; settings: in vivo
[14] = Effect on bile acid homeostasis in HCD-fed C57BL/6 mouse assessed as decrease in FXR mRNA expression by RT-qPCR analysis; format: functional; design: scale not given: the % may be the effect or the level left
[15] = Effect on bile acid homeostasis in HCD-fed C57BL/6 mouse assessed as decrease in Car mRNA expression by RT-qPCR analysis; format: functional; design: scale not given: the % may be the effect or the level left
Mus musculus [16] = species: Mus musculus; assay: Effect on bile acid homeostasis in HCD-fed C57BL/6 mouse assessed as change in Bsep mRNA expression by RT-qPCR analysis; format: functional
HepG2 [17] = assay: Induction of apoptosis in human HepG2 cells assessed as early apoptotic cells at 5 uM measured after 48 hrs by Annexin-V-FITC/propidium iodide staining based flow cytometry (reference value: 15.5 %); format: functional
Mus musculus [18] = assay: Reversal of HCD-induced LXRalpha activation in C57BL/6 mouse assessed as decrease in LXRalpha protein level at 0.8 mg/kg, ip; format: functional; design: scale not given: the % may be the effect or the level left
HepG2 [19] = assay: Induction of mitochondrial dysfunction in human HepG2 cells assessed as decrease in TNFalpha level at 1 uM after 48 hrs; format: cell-based; design: scale not given: the % may be the effect or the level left; settings: hepg2, 48 h
[20] = Inhibition of FXR protein expression level in HCD-fed C57BL/6 mouse at 0.8 mg/kg, ip; format: functional; settings: C57BL/6, ip
[21] = Down regulation of SHP mRNA level in human HepG2 cells at 5 uM by RT-qPCR analysis; format: functional
[22] = Down regulation of SHP mRNA level in human HepG2 cells at 1 uM by RT-qPCR analysis; format: functional
[23] = Hepatotoxicity in renal carcinoma xenografted C57BL/6 mouse assessed as inflammatory infiltration at 0.8 mg/kg, ip by histological analysis; format: toxicity, organism-based; settings: in vivo
[24] = Down regulation of FXR mRNA level in human HepG2 cells at 5 uM by RT-qPCR analysis; format: functional
Mus musculus [25] = assay: Induction of HCD-induced cholestasis in C57BL/6 mouse assessed as fold increase in plasma total bile acid level at 0.8 mg/kg, ip; format: functional
[26] = target: T1, Oxysterols receptor LXR-alpha (Homo sapiens, UniProt Q13133); assay: Binding affinity to full-length human LXRalpha by surface plasmon resonance assay
T1 sequence (Q13133 whole entry): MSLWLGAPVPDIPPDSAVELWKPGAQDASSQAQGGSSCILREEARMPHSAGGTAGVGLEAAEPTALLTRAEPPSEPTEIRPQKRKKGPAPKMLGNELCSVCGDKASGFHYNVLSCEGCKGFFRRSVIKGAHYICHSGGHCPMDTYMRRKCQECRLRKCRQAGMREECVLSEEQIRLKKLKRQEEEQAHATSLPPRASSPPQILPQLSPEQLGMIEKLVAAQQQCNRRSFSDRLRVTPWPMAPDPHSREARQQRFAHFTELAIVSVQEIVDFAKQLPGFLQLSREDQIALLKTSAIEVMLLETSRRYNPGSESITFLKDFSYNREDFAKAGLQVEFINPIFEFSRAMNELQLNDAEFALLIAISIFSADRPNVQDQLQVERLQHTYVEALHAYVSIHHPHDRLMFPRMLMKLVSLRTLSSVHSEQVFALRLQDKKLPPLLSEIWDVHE

[27] = Effect on bile acid homeostasis in HCD-fed C57BL/6 mouse assessed as fold increase in Mrp3 mRNA expression by RT-qPCR analysis; format: functional
HepG2 [28] = assay: Induction of mitochondrial dysfunction in human HepG2 cells assessed as decrease in ILbeta level at 5 to 10 uM after 48 hrs; format: cell-based; design: scale not given: the % may be the effect or the level left; settings: hepg2, 48 h, dose 5-10 µM
[29] = Drug metabolism in mouse liver assessed as PA formation at 10 mg/kg, po after 30 mins by LC-MS/MS analysis; format: ADME, organism-based; settings: in vivo, 0.5 h
[30] = Induction of SHP mRNA level in human HepG2 cells assessed as fold increase in SHP expression at 1 uM by RT-qPCR analysis; format: functional
HepG2 [31] = assay: Down regulation of ABCB1 protein level in human HepG2 cells at 1 to 5 uM by Western blot analysis; format: functional, cell-based; settings: dose 1-5 µM
[32] = Drug metabolism in mouse liver assessed as PA formation at 10 mg/kg, po after 180 mins by LC-MS/MS analysis; format: ADME, organism-based; settings: in vivo, 3 h
[33] = Induction of FXR mRNA level in human HepG2 cells assessed as fold increase in FXR expression at 1 uM by RT-qPCR analysis; format: functional
HepG2 [34] = assay: Down regulation of LXRalpha protein level in human HepG2 cells at 1 to 5 uM by Western blot analysis; format: functional, cell-based; settings: dose 1-5 µM
[35] = Induction of LDLR protein expression level in HCD-fed C57BL/6 mouse at 0.8 mg/kg, ip; format: functional
[36] = Induction of LDLR protein expression level in chow diet fed C57BL/6 mouse at 0.8 mg/kg, ip; format: functional
HepG2 [37] = assay: Effect on LXRalpha mRNA level in human HepG2 cells at 1 to 5 uM by RT-qPCR analysis; format: functional, cell-based; settings: dose 1-5 µM

Row | Compound | fold change (FC) [1] | fold change (FC) (Mus musculus [2]) | Activity (HepG2 [3]) [%] | Activity (HepG2 [4]) | Activity [5] [%] | Activity (HepG2 [6]) | fold change (FC) (Mus musculus [7]) | fold change (FC) [8] | Activity [10] [%] | Activity (Mus musculus [11]) | Activity (Mus musculus [12]) | Activity [13] | Activity [14] [%] | Activity [15] [%] | Activity (Mus musculus [16]) | Activity (HepG2 [17]) [%] | Activity (Mus musculus [18]) [%] | inhibition in vivo at 0.8 mg/kg [20] [%] | Activity [21] [%] | Activity [23] | further results
1 | C/C=C(\C)[C@H](O)[C@H](C)/C=C(C)/C=C/C/C(C)=C/Cc1nc(OC)c(OC)c(O)c1C [PIERICIDIN A] | 2.7 | 2.7 | 26.4 | Non-Toxic | 2.8 | Toxic | 2.6 | 3.1 | 60 | inactive | inactive | Non-Toxic | 58 | 50 | inactive | 24.6 | 72 | 79 | 30 | Toxic | Activity [9]: 56%; Activity (HepG2 [19]): 54%; Activity [22]: 55%; Activity [24]: 34%; fold change (FC) (Mus musculus [25]): 2.8; Kd [26]: 3.24 µM
2 | C/C=C(\C)[C@H](O[C@@H]1O[C@H](CO)[C@@H](O)[C@H](O)[C@H]1O)[C@H](C)/C=C(C)/C=C/C/C(C)=C/Cc1nc(OC)c(OC)c(O)c1C | 2.5 | 3.8 | 16.6 | Non-Toxic | 3 | Toxic | 2.3 | 2.2 | 42 | inactive | inactive | Non-Toxic | 60 | 86 | inactive | 35.7 | 46 | 31 | 61 | Toxic | fold change (FC) [27]: 1.65; Activity (HepG2 [28]): 68%; Drug metabolism [29]: 14.87 ng/mL; fold change (FC) [30]: 3.6; Activity (HepG2 [31]): Active; Drug metabolism [32]: Metabolite_Detected; fold change (FC) [33]: 3.6; Activity (HepG2 [34]): Active; fold change (FC) [35]: 1.6; fold change (FC) [36]: 1.5; Activity (HepG2 [37]): inactive; fold change (FC) (Mus musculus [25]): 3.5
